This test has as its target T1, peroxisome proliferator-activated receptor gamma (PPARγ) (Mus musculus, UniProt P37238).
T1 construct: gene Pparg; LBD, GFP fusion overexpressed in 293T cells
T1 sequence (P37238 238-505 limits assumed): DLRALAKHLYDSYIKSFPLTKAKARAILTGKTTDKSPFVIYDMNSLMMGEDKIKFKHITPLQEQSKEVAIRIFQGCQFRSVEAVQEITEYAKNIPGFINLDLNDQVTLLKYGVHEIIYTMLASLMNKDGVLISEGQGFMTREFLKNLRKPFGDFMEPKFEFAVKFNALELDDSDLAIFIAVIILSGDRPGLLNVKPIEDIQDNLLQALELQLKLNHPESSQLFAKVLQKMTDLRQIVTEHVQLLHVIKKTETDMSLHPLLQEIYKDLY
Kind of test: microscale thermophoresis with GFP-PPARγ LBD in cell lysate; supported by luciferase reporter (partial agonist). Type of test: binding. (In general: Microscale thermophoresis detects binding through changes in fluorescence in a small temperature gradient.)

Consider 1 compound from article PMC11233932, “Identification of an alternative ligand‐binding pocket in peroxisome proliferator‐activated receptor gamma and its correlated selective agonist for promoting beige adipocyte differentiation” (MedComm, 2024).

The term Kd denotes a measure of binding affinity in units of concentration. A higher Kd goes with a looser complex. On to `C[C@H]1O[C@@H](O[C@H]2CC[C@@]3(C)[C@@H](CC[C@]4(C)[C@@H]3C=C[C@]35OC[C@@]6(CCC(C)(C)C[C@H]63)[C@@H](O)C[C@]54C)[C@]2(C)CO)[C@H](O)[C@@H](O[C@@H]2O[C@H](CO)[C@@H](O)[C@H](O)[C@H]2O)[C@H]1O` [NJT-2, saikosaponin A], for which the affinity, expressed as Kd, was 5.07 µM.
